Measured values: patent publication US9340577B2, “HLA binding motifs and peptides and their uses” (priority 1992, dated 2016)
No end group written: not given here.

Experiments:
Test in all cases: biochemical
DR7 (DRB1*0701) = DR7 (DRB1*0701) (Homo sapiens, UniProt P01903+P01911, A100R/A102G/A103Q/D57E/D86V/E43K/F76Y/K127E/L162R/M171V/P40G/Q125H/Q99D/R33Q/R42Y/R54Q/S133A/S66F/T210M/V115G/Y107V/Y59L/Y89S); format: binding
DRB1*1302 = DRB1*1302 (Homo sapiens, UniProt P01903+P01911, A100E/A169T/K41T/L162R/M171V/P40S/Q125H/Q178H/Q39Y/Q99D/R42S/S66N/T262R/V115G/W38E/Y61H); format: binding
DRB1*0301 = DRB1*0301 (Homo sapiens, UniProt P01903+P01911, A100K/A102G/A103R/A169T/F55Y/I96L/K41T/L162R/M171V/P40S/Q125H/Q178H/Q39Y/R42S/S66N/T106N/T262R/W38E/Y61H); format: binding
DRB1*0802 = DRB1*0802 (Homo sapiens, UniProt P01903+P01911, A100R/A103L/A169T/F76Y/H45Y/I96F/K41T/L162R/M171V/P40S/Q125H/Q178H/Q39Y/Q99D/R218S/R42G/S66Y/V115G/W38E); format: binding
DRB1*1201 = DRB1*1201 (Homo sapiens, UniProt P01903+P01911, A100R/A169T/D57E/D86V/F55L/H45Y/K41T/L162R/M171V/P40S/Q125H/Q178H/Q39Y/Q99D/R42G/S66L/T262R/V114A/V67L/W38E/Y59H/Y61H/Y89S); format: binding
DRB4*0101 = DRB4*0101 (Homo sapiens, UniProt P01903+P13762, G164S); format: binding
DR1 (DRB1*0101) = DR1 (DRB1*0101) (Homo sapiens, UniProt P01903+P01911, A100R/D57E/F55L/F60I/F76Y/I96L/L162R/M171V/P40L/Q125E/R42F/V115G/Y59C); format: binding
DRB1*1501 = DRB1*1501 (Homo sapiens, UniProt P01903+P01911); format: binding
DR4w4 (DRB1*0401) = DR4w4 (DRB1*0401) (Homo sapiens, UniProt P01903+P01911, A100K/A169T/F76Y/I96L/K127E/L162R/M171V/N62H/P40V/Q125Y/R42H/S133A/S149N/S66Y/V115G/V209L/W38E); format: binding
DRB5*0101 = DRB5*0101 (Homo sapiens, UniProt P01903+Q30154); conditions: Binding affinity DRB5 *0101
DRB1*0901 = DRB1*0901 (Homo sapiens, UniProt P01903+P01911, A100R/A103E/D57H/D86V/F55Y/F60I/F76Y/I96F/K127E/L162R/M171V/P40D/Q125H/Q99R/R33Q/R42F/S133A/S66N/T210M/V115G/W38K/Y107V/Y59G/Y89S); format: binding
DRB1*0405 = DRB1*0405 (Homo sapiens, UniProt P01903+P01911, A100R/A169T/D86S/F76Y/I96L/K127E/L162R/M171V/N62H/P40V/Q125Y/R42H/S133A/S149N/S66Y/V115G/V209L/W38E); format: binding
DRB1*1101 = DRB1*1101 (Homo sapiens, UniProt P01903+P01911, A100R/A169T/A87E/I96F/K41T/L162R/M171V/P40S/Q125H/Q178H/Q39Y/Q99D/R42S/S66Y/T262R/V115G/W38E); conditions: Binding affinity DRB1 *1101
Chain of DRB1*1101 (P01903 26-254 limits assumed, other chains not shown): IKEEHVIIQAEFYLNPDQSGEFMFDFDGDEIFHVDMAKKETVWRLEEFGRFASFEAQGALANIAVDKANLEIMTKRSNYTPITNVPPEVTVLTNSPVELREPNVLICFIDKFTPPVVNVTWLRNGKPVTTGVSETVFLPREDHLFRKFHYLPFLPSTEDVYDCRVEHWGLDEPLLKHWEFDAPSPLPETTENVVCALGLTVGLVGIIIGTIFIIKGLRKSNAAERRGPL

Chain of DRB1*1302 (P01903 26-254 limits assumed, other chains not shown): as above
Chain of DRB1*0301 (P01903 26-254 limits assumed, other chains not shown): as above

Compound	IC50 (DR7 (DRB1*0701)) [nM]	IC50 (DRB1*1302) [nM]	IC50 (DRB1*0301) [nM]	IC50 (DRB1*0802) [nM]	IC50 (DRB1*1201) [nM]	IC50 (DRB4*0101) [nM]	IC50 (DR1 (DRB1*0101)) [nM]	IC50 (DRB1*1501) [nM]	IC50 (DR4w4 (DRB1*0401)) [nM]	IC50 (DRB5*0101) [nM]	IC50 (DRB1*0901) [nM]	IC50 (DRB1*0405) [nM]	IC50 (DRB1*1101) [nM]
CC[C@H](C)[C@H](NC(=O)[C@H](Cc1c[nH]c2ccccc12)NC(=O)[C@H](CCC(=O)O)NC(=O)[C@@H]1CCCN1)C(=O)N[C@@H](CCC(N)=O)C(=O)N[C@@H](CCCNC(=N)N)C(=O)N[C@@H](CCC(N)=O)C(=O)N[C@H](C(=O)N[C@H](C(=O)N[C@@H](CC(C)C)C(=O)N[C@@H](CCC(N)=O)C(=O)N[C@@H](Cc1c[nH]cn1)C(=O)N[C@@H](CO)C(=O)N[C@@H](Cc1ccccc1)C(=O)N[C@@H](CC(N)=O)C(=O)O)C(C)C)[C@@H](C)O [Peptide 89.0011]	6120	473	155	213	4020	4.5	2260	8860	18	11800	6180	259	–
CMLIQPPKLRSTAAA [Peptide 89.0047]	470	3610	5760	2650	3690	567	–	2640	2380	904	7540	> 20000	982
CQAIELQLALEALNK [Peptide 90.0014]	> 20000	214	466	3590	1100	14	25	200	450	1910	1780	1520	3230
DWCVAAFGVTGTVAE [Peptide 89.0042]	349	> 20000	> 20000	3500	> 20000	601	11	64	294	8660	901	184	3230
DWVMAIFGVNPTVAE [Peptide 89.0079]	108	60	431	6720	430	6.5	58	26	45	–	1620	85	1820
DYVLDLQPEATDLHC [Peptide 1543.10]	> 20000	> 20000	11000	> 20000	4880	69	5050	> 20000	35	> 20000	> 20000	678	> 20000
ETCMVIEPPKLRSQT [Peptide 90.0083]	794	> 20000	275	4300	825	16	26	670	1550	124	> 20000	2280	4740
EVHMENESIYCPDSV [Peptide 90.0238]	> 20000	2370	410	> 20000	> 20000	> 20000	634	516	5250	> 20000	> 20000	> 20000	> 20000
FKKFLKGIPKKSCML [Peptide 89.0073]	2090	2660	> 20000	320	709	2220	20	508	452	66	2480	17500	64
FQVIELQMALETLNA [Peptide 90.0025]	2650	187	743	> 20000	708	15	20	449	75	> 20000	1970	2490	3990
GEIYIIEEDTCTMVT [Peptide 90.0202]	6600	426	55	> 20000	> 20000	322	1600	> 20000	148	> 20000	> 20000	8110	> 20000
ISEVMGDTPEWIQRL [Peptide 90.0052]	4020	9	55	> 20000	> 20000	2040	2880	6830	> 20000	> 20000	> 20000	4110	> 20000
IVHLKGDPNSLKCLR [Peptide 90.0255]	> 20000	574	42	2210	4650	1590	229	7830	83	2560	> 20000	> 20000	–
LKAICIENNSKTAKR [Peptide 90.0064]	6350	144	86	–	4580	85	62	359	36	–	> 20000	369	–
NGWFYVEAVIDRQTG [Peptide 90.0062]	157	4870	241	3990	4040	14	157	> 20000	69	558	453	12	3350
RGIIILLLIRFRCSK [Peptide 89.0063]	721	352	> 20000	6420	2010	283	674	431	883	> 20000	> 20000	241	–
VDFIDTQLSICEQAE [Peptide 89.0078]	426	1550	3780	7430	2020	471	–	609	1280	1520	6000	284	3920
VEFMSFLTALKRFLQ [Peptide 89.0015]	109	9820	347	102	91	42	19	1840	72	19	–	453	44
YFKYFKEDAKKYSKT [Peptide 90.0253]	> 20000	> 20000	108	–	> 20000	> 20000	4010	> 20000	3620	289	> 20000	> 20000	–
